Earlier results, collected in patent US20100260859A1 (ELAN PHARMA INTERNATIONAL LIMITED, priority 2009, published 2010).

established intrinsic solubility of clozapine in water: 16 µg/mL
solubility in water (in words): very slightly soluble in water
Compound: CN1CCN(C2=Nc3cc(Cl)ccc3Nc3ccccc32)CC1 [Clozapine, 8-chloro-11-(4-methylpiperazin-1-yl)-5H-dibenzo[b,e][1,4]diazepine]
